{"source": "ChEMBL document CHEMBL3885881", "about": "“DrugMatrix”", "organism": "Rattus norvegicus", "test": "DrugMatrix - Regimen: Daily Repeat", "assay_type": "toxicity, organism-based, Sprague-Dawley", "design": "regimen Daily Repeat, gender Male, age 6-8 weeks", "settings": "in vivo, po, route oral GAVAGE, vehicle .5 % CMC; for BASOPHIL / EOSINOPHIL / ERYTHROCYTE COUNT / HEMATOCRIT / HEMOGLOBIN / LEUKOCYTE COUNT / LYMPHOCYTE / MEAN CORPUSCULAR HEMOGLOBIN / MEAN CORPUSCULAR HEMOGLOBIN CONCENTRATION / MEAN CORPUSCULAR VOLUME / MONOCYTE / NEUTROPHIL / PLATELET COUNT: tissue Blood; for ALANINE AMINOTRANSFERASE / ALBUMIN / ALKALINE PHOSPHATASE / ASPARTATE AMINOTRANSFERASE / BLOOD UREA NITROGEN / CHLORIDE / CHOLESTEROL / CREATINE PHOSPHOKINASE / CREATININE / GLUCOSE / PHOSPHORUS / POTASSIUM / SODIUM / TOTAL BILIRUBIN / TOTAL PROTEIN: tissue Plasma", "key": {"[1]": {"settings": "0 mg/kg, 72 h, dose level Control, time 3 day"}, "[2]": {"settings": "0 mg/kg, 120 h, dose level Control, time 5 day"}, "[3]": {"settings": "94 mg/kg, 72 h, dose level High, time 3 day"}}}
{"smiles": "O=C(CCCN1CC=C(n2c(=O)[nH]c3ccccc32)CC1)c1ccc(F)cc1", "note": "[DROPERIDOL]", "values": [{"measurement": "BASOPHIL", "setting": "[1]", "value": 1.52, "unit": "%"}, {"measurement": "EOSINOPHIL", "setting": "[1]", "value": 0.98, "unit": "%"}, {"measurement": "ERYTHROCYTE COUNT", "setting": "[1]", "value": 6.96, "unit": "x10E6/uL"}, {"measurement": "HEMATOCRIT", "setting": "[1]", "value": 44.65, "unit": "%"}, {"measurement": "HEMOGLOBIN", "setting": "[1]", "value": 13.62, "unit": "G/DL"}, {"measurement": "LEUKOCYTE COUNT", "setting": "[1]", "value": 9.83, "unit": "x10E3/uL"}, {"measurement": "LYMPHOCYTE", "setting": "[1]", "value": 76.48, "unit": "%"}, {"measurement": "MEAN CORPUSCULAR HEMOGLOBIN", "setting": "[1]", "value": 19.57, "unit": "pg"}, {"measurement": "MEAN CORPUSCULAR HEMOGLOBIN CONCENTRATION", "setting": "[1]", "value": 30.47, "unit": "G/DL"}, {"measurement": "MEAN CORPUSCULAR VOLUME", "setting": "[1]", "value": 64.22, "unit": "fL"}, {"measurement": "MONOCYTE", "setting": "[1]", "value": 2.13, "unit": "%"}, {"measurement": "NEUTROPHIL", "setting": "[1]", "value": 18.6, "unit": "%"}, {"measurement": "PLATELET COUNT", "setting": "[1]", "value": 1217.17, "unit": "x10E3/uL"}, {"measurement": "ALANINE AMINOTRANSFERASE", "setting": "[1]", "value": 41, "unit": "u/L"}, {"measurement": "ALBUMIN", "setting": "[1]", "value": 3.77, "unit": "G/DL"}, {"measurement": "ALKALINE PHOSPHATASE", "setting": "[1]", "value": 411.83, "unit": "u/L"}, {"measurement": "ASPARTATE AMINOTRANSFERASE", "setting": "[1]", "value": 62.83, "unit": "u/L"}, {"measurement": "BLOOD UREA NITROGEN", "setting": "[1]", "value": 15.17, "unit": "mg/dL"}, {"measurement": "CHLORIDE", "setting": "[1]", "value": 104.33, "unit": "MEQ/L"}, {"measurement": "CHOLESTEROL", "setting": "[1]", "value": 71.17, "unit": "mg/dL"}, {"measurement": "CREATINE PHOSPHOKINASE", "setting": "[1]", "value": 123.5, "unit": "u/L"}, {"measurement": "CREATININE", "setting": "[1]", "value": 0.55, "unit": "mg/dL"}, {"measurement": "GLUCOSE", "setting": "[1]", "value": 182.67, "unit": "mg/dL"}, {"measurement": "PHOSPHORUS", "setting": "[1]", "value": 11.23, "unit": "mg/dL"}, {"measurement": "POTASSIUM", "setting": "[1]", "value": 7.03, "unit": "MEQ/L"}, {"measurement": "SODIUM", "setting": "[1]", "value": 148, "unit": "MEQ/L"}, {"measurement": "TOTAL BILIRUBIN", "setting": "[1]", "value": 0.57, "unit": "mg/dL"}, {"measurement": "TOTAL PROTEIN", "setting": "[1]", "value": 6.85, "unit": "G/DL"}, {"measurement": "BASOPHIL", "setting": "[2]", "value": 1.35, "unit": "%"}, {"measurement": "EOSINOPHIL", "setting": "[2]", "value": 0.43, "unit": "%"}, {"measurement": "ERYTHROCYTE COUNT", "setting": "[2]", "value": 6.96, "unit": "x10E6/uL"}, {"measurement": "HEMATOCRIT", "setting": "[2]", "value": 44.35, "unit": "%"}, {"measurement": "HEMOGLOBIN", "setting": "[2]", "value": 13.98, "unit": "G/DL"}, {"measurement": "LEUKOCYTE COUNT", "setting": "[2]", "value": 9.45, "unit": "x10E3/uL"}, {"measurement": "LYMPHOCYTE", "setting": "[2]", "value": 80.83, "unit": "%"}, {"measurement": "MEAN CORPUSCULAR HEMOGLOBIN", "setting": "[2]", "value": 20.1, "unit": "pg"}, {"measurement": "MEAN CORPUSCULAR HEMOGLOBIN CONCENTRATION", "setting": "[2]", "value": 31.52, "unit": "G/DL"}, {"measurement": "MEAN CORPUSCULAR VOLUME", "setting": "[2]", "value": 63.72, "unit": "fL"}, {"measurement": "MONOCYTE", "setting": "[2]", "value": 2.37, "unit": "%"}, {"measurement": "NEUTROPHIL", "setting": "[2]", "value": 14.05, "unit": "%"}, {"measurement": "PLATELET COUNT", "setting": "[2]", "value": 1298, "unit": "x10E3/uL"}, {"measurement": "ALANINE AMINOTRANSFERASE", "setting": "[2]", "value": 42.17, "unit": "u/L"}, {"measurement": "ALBUMIN", "setting": "[2]", "value": 3.77, "unit": "G/DL"}, {"measurement": "ALKALINE PHOSPHATASE", "setting": "[2]", "value": 419, "unit": "u/L"}, {"measurement": "ASPARTATE AMINOTRANSFERASE", "setting": "[2]", "value": 66.67, "unit": "u/L"}, {"measurement": "BLOOD UREA NITROGEN", "setting": "[2]", "value": 16.67, "unit": "mg/dL"}, {"measurement": "CHLORIDE", "setting": "[2]", "value": 103.17, "unit": "MEQ/L"}, {"measurement": "CHOLESTEROL", "setting": "[2]", "value": 66.33, "unit": "mg/dL"}, {"measurement": "CREATINE PHOSPHOKINASE", "setting": "[2]", "value": 148.33, "unit": "u/L"}, {"measurement": "CREATININE", "setting": "[2]", "value": 0.58, "unit": "mg/dL"}, {"measurement": "GLUCOSE", "setting": "[2]", "value": 196.83, "unit": "mg/dL"}, {"measurement": "PHOSPHORUS", "setting": "[2]", "value": 11.8, "unit": "mg/dL"}, {"measurement": "POTASSIUM", "setting": "[2]", "value": 6.47, "unit": "MEQ/L"}, {"measurement": "SODIUM", "setting": "[2]", "value": 148.33, "unit": "MEQ/L"}, {"measurement": "TOTAL BILIRUBIN", "setting": "[2]", "value": 0.53, "unit": "mg/dL"}, {"measurement": "TOTAL PROTEIN", "setting": "[2]", "value": 6.77, "unit": "G/DL"}, {"measurement": "BASOPHIL", "setting": "[3]", "value": 2.03, "unit": "%"}, {"measurement": "EOSINOPHIL", "setting": "[3]", "value": 0.53, "unit": "%"}, {"measurement": "ERYTHROCYTE COUNT", "setting": "[3]", "value": 7.81, "unit": "x10E6/uL"}, {"measurement": "HEMATOCRIT", "setting": "[3]", "value": 49.37, "unit": "%"}, {"measurement": "HEMOGLOBIN", "setting": "[3]", "value": 15.57, "unit": "G/DL"}, {"measurement": "LEUKOCYTE COUNT", "setting": "[3]", "value": 13.33, "unit": "x10E3/uL"}, {"measurement": "LYMPHOCYTE", "setting": "[3]", "value": 87.57, "unit": "%"}, {"measurement": "MEAN CORPUSCULAR HEMOGLOBIN", "setting": "[3]", "value": 20.1, "unit": "pg"}, {"measurement": "MEAN CORPUSCULAR HEMOGLOBIN CONCENTRATION", "setting": "[3]", "value": 31.57, "unit": "G/DL"}, {"measurement": "MEAN CORPUSCULAR VOLUME", "setting": "[3]", "value": 63.57, "unit": "fL"}, {"measurement": "MONOCYTE", "setting": "[3]", "value": 2.1, "unit": "%"}, {"measurement": "NEUTROPHIL", "setting": "[3]", "value": 7, "unit": "%"}, {"measurement": "PLATELET COUNT", "setting": "[3]", "value": 1484.33, "unit": "x10E3/uL"}, {"measurement": "ALANINE AMINOTRANSFERASE", "setting": "[3]", "value": 35.67, "unit": "u/L"}, {"measurement": "ALBUMIN", "setting": "[3]", "value": 4.03, "unit": "G/DL"}, {"measurement": "ALKALINE PHOSPHATASE", "setting": "[3]", "value": 335, "unit": "u/L"}, {"measurement": "ASPARTATE AMINOTRANSFERASE", "setting": "[3]", "value": 61.67, "unit": "u/L"}, {"measurement": "BLOOD UREA NITROGEN", "setting": "[3]", "value": 21.67, "unit": "mg/dL"}, {"measurement": "CHLORIDE", "setting": "[3]", "value": 102.33, "unit": "MEQ/L"}, {"measurement": "CHOLESTEROL", "setting": "[3]", "value": 79.67, "unit": "mg/dL"}, {"measurement": "CREATINE PHOSPHOKINASE", "setting": "[3]", "value": 112.67, "unit": "u/L"}, {"measurement": "CREATININE", "setting": "[3]", "value": 0.67, "unit": "mg/dL"}, {"measurement": "GLUCOSE", "setting": "[3]", "value": 149, "unit": "mg/dL"}, {"measurement": "PHOSPHORUS", "setting": "[3]", "value": 11.77, "unit": "mg/dL"}, {"measurement": "POTASSIUM", "setting": "[3]", "value": 7.13, "unit": "MEQ/L"}, {"measurement": "SODIUM", "setting": "[3]", "value": 148, "unit": "MEQ/L"}, {"measurement": "TOTAL BILIRUBIN", "setting": "[3]", "value": 0.6, "unit": "mg/dL"}, {"measurement": "TOTAL PROTEIN", "setting": "[3]", "value": 7.1, "unit": "G/DL"}]}
